Measured values reported in US9650334B2 (AbbVie Deutschland GmbH & Co. KG, priority 2013, dated 2017).
pKi: −log10 of the molar value.

Target: T1, human GlyT1c transporter (Homo sapiens, UniProt P48067)
T1 sequence (P48067 1-706): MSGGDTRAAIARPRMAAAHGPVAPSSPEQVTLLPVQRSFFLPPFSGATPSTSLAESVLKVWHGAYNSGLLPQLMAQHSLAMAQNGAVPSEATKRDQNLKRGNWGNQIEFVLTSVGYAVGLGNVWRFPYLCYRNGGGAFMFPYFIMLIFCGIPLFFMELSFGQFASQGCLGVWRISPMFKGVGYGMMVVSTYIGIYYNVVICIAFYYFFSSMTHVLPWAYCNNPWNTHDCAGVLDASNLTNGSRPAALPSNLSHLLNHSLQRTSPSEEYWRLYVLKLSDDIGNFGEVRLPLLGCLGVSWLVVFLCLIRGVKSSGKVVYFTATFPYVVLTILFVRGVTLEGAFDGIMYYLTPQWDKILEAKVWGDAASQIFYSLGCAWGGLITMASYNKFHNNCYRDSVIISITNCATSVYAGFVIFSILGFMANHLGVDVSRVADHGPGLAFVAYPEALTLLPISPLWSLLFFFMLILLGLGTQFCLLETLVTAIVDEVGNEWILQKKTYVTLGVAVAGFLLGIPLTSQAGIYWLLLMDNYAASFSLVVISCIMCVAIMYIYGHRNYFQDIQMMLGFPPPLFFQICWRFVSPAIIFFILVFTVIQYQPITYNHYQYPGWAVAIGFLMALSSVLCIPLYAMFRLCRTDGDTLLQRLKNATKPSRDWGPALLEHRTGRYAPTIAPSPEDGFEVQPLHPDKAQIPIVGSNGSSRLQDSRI
Test: Radioligand binding assays using recombinant CHO cell membranes expressing human GlyT1
Details: radioligand binding to human GlyT1c transporter-expressing CHO cell membranes

Molecule	pKi	pKi (Ki)
2,2-difluoro-N-{(3R,4S)-4-(4-fluorophenyl)-1-[(1-methyl-1H-imidazol-4-yl)sulfonyl]pyrrolidin-3-yl}pentanamide [Example 700]	≥ 5.00	
4-({(3R,4S)-1-[(1-methyl-1H-imidazol-4-yl)sulfonyl]-4-phenylpyrrolidin-3-yl}amino)-2,3-dihydro-1H-isoindol-1-one [Example 421]	≥ 5.00	
6-(cyclohexyloxy)-N-{(3R,4S)-4-(4-fluorophenyl)-1-[(1-methyl-1H-imidazol-4-yl)sulfonyl]pyrrolidin-3-yl}pyrimidin-4-amine [Example 721]	≥ 7.00	
6-butoxy-N-{(3R,4S)-4-(4-fluorophenyl)-1-[(1-methyl-1H-imidazol-4-yl)sulfonyl]pyrrolidin-3-yl}pyrimidin-4-amine [Example 717]	≥ 7.00	
Cn1cnc(S(=O)(=O)N2C[C@@H](Nc3ccc(OC(F)(F)F)c(C#N)c3)[C@H](c3ccccc3)C2)c1 (racemic) [Example 102, 5-({trans-1-[(1-methyl-1H-imidazol-4-yl)sulfonyl]-4-phenylpyrrolidin-3-yl}amino)-2-(trifluoromethoxy)benzonitrile]		≥ 6.00
CCS(=O)(=O)N1C[C@@H](NC(=O)c2ccc(C(F)(F)F)cc2)[C@H](c2ccccc2)C1 (relative stereo) [Example 122, N-[trans-1-(ethylsulfonyl)-4-phenylpyrrolidin-3-yl]-4-(trifluoromethyl)benzamide]		≥ 5.00
Cc1cccc(CN[C@@H]2CN(S(=O)(=O)c3cn(C)cn3)C[C@H]2c2ccc(F)cc2)c1 (relative stereo) [Example 154, trans-4-(4-fluorophenyl)-N-(3-methylbenzyl)-1-[(1-methyl-1H-imidazol-4-yl)sulfonyl]pyrrolidin-3-amine]		≥ 7.00
Cn1cnc(S(=O)(=O)N2C[C@@H](C(=O)c3cccc(F)c3)[C@H](c3ccc(F)cc3)C2)c1 (relative stereo) [Example 301]		≥ 6.00
Cn1cnc(S(=O)(=O)N2C[C@@H](c3ccccc3)[C@](C)(NCc3ccc(C(F)(F)F)cc3Cl)C2)c1 (relative stereo) [Example 356, Trans-N-[2-chloro-4-(trifluoromethyl)benzyl]-3-methyl-1-[(1-methyl-1H-imidazol-4-yl)sulfonyl]-4-phenylpyrrolidin-3-amine]		≥ 7.00
Cn1cnc(S(=O)(=O)N2C[C@@H](c3ccccc3)[C@](C)(Nc3cc(C(F)(F)F)ccn3)C2)c1 (relative stereo) [Example 388, N-{Trans-3-methyl-1-[(1-methyl-1H-imidazol-4-yl)sulfonyl]-4-phenylpyrrolidin-3-yl}-4-(trifluoromethyl)pyridin-2-amine]		≥ 7.00
Cn1cnc(S(=O)(=O)N2C[C@@H](c3ccccc3)[C@](CO)(NCc3ccc(C(F)(F)F)cc3)C2)c1 (relative stereo) [Example 401]		≥ 5.00
Cn1cnc(S(=O)(=O)N2C[C@@H](NCc3ccc(C(F)(F)F)cc3Cl)[C@H](c3ncccc3F)C2)c1 (relative stereo) [Example 761, Trans-N-[2-chloro-4-(trifluoromethyl)benzyl]-4-(3-fluoropyridin-2-yl)-1-[(1-methyl-1H-imidazol-4-yl)sulfonyl]pyrrolidin-3-amine]		≥ 7.00
Cn1cnc(S(=O)(=O)N2C[C@@H](Nc3ccc(F)c(F)c3)[C@H](c3ncccc3F)C2)c1 (relative stereo) [Example 766, Trans-N-(3,4-difluorophenyl)-4-(3-fluoropyridin-2-yl)-1-[(1-methyl-1H-imidazol-4-yl)sulfonyl]pyrrolidin-3-amine]		≥ 6.00
Cn1cnc(S(=O)(=O)N2C[C@@H]3c4ccccc4C[C@@]3(NCc3ccc(C(F)(F)F)cc3Cl)C2)c1 (relative stereo) [Example 885, trans-N-[2-chloro-4-(trifluoromethyl)benzyl]-2-[(1-methyl-1H-imidazol-4-yl)sulfonyl]-2,3,3a,8-tetrahydroindeno[1,2-c]pyrrol-8a(1H)-amine]		≥ 7.00
Cn1cnc(S(=O)(=O)N2CC(c3ccccc3)C3(COC(=O)N3Cc3ccc(C(F)(F)F)cc3)C2)c1 (stereo not drawn) [Example 407, Trans-7-[(1-methyl-1H-imidazol-4-yl)sulfonyl]-9-phenyl-1-[4-(trifluoromethyl)benzyl]-3-oxa-1,7-diazaspiro[4.4]nonan-2-one]		≥ 5.00
Cn1cnc(S(=O)(=O)N2C[C@H](NCc3cnc(Br)s3)[C@@H](c3ccccc3)C2)c1 [Example 438, (3R,4S)-N-[(2-bromo-1,3-thiazol-5-yl)methyl]-1-[(1-methyl-1H-imidazol-4-yl)sulfonyl]-4-phenylpyrrolidin-3-amine]		≥ 6.00

Molecule	pKi	pKi (Ki)
Cc1nc(CN[C@H]2CN(S(=O)(=O)c3cn(C)cn3)C[C@@H]2c2ccccc2)sc1Br [Example 559, (3R,4S)-N-[(5-bromo-4-methyl-1,3-thiazol-2-yl)methyl]-1-[(1-methyl-1H-imidazol-4-yl)sulfonyl]-4-phenylpyrrolidin-3-amine]		≥ 6.00
Cn1cnc(S(=O)(=O)N2CC(Nc3cccc(OC(F)(F)F)c3)C(C3CCCN(C4CC4)C3)C2)c1 (stereo not shown) [Example 641, 4-[-1-cyclopropylpiperidin-3-yl]-1-[(1-methyl-1H-imidazol-4-yl)sulfonyl]-N-[3-(trifluoromethoxy)phenyl]pyrrolidin-3-amine]		≥ 7.00
CCCCc1cn([C@H]2CN(S(=O)(=O)c3cn(C)cn3)C[C@@H]2c2ccccc2)nn1 [Example 668, 4-butyl-1-{(3R,4S)-1-[(1-methyl-1H-imidazol-4-yl)sulfonyl]-4-phenylpyrrolidin-3-yl}-1H-1,2,3-triazole]		≥ 5.00
Cn1cnc(S(=O)(=O)N2C[C@H](NCCCCC3OCC(C)(C)CO3)[C@@H](c3ccc(F)cc3)C2)c1 [Example 684]		≥ 6.00
CCCCNC(=O)O[C@@H]1CN(S(=O)(=O)c2cn(C)cn2)C[C@H]1c1ccc(F)cc1 [Example 699, (3S,4R)-4-(4-fluorophenyl)-1-[(1-methyl-1H-imidazol-4-yl)sulfonyl]pyrrolidin-3-yl butylcarbamate]		≥ 6.00
Cn1cnc(S(=O)(=O)N2C[C@H](Nc3cc(OCC(F)(F)F)ccn3)[C@@H](c3ccccc3)C2)c1 [Example 809, N-{(3R,4S)-1-[(1-methyl-1H-imidazol-4-yl)sulfonyl]-4-phenylpyrrolidin-3-yl}-4-(2,2,2-trifluoroethoxy)pyridin-2-amine]		≥ 8.00
CCCCC1CN([C@H]2CN(S(=O)(=O)c3cn(C)cn3)C[C@@H]2c2ccc(F)cc2)C(=O)O1 (stereo partly drawn) [Example 863, 5-butyl-3-{(3R,4S)-4-(4-fluorophenyl)-1-[(1-methyl-1H-imidazol-4-yl)sulfonyl]pyrrolidin-3-yl}-1,3-oxazolidin-2-one]		≥ 6.00
Cn1cnc(S(=O)(=O)N2C[C@H](c3ccc(F)cc3)[C@@H](N3CCS(=O)(=O)CC3)C2)c1 [Example 864, 4-{(3R,4S)-4-(4-fluorophenyl)-1-[(1-methyl-1H-imidazol-4-yl)sulfonyl]pyrrolidin-3-yl}thiomorpholine 1,1-dioxide]		≥ 5.00
C=C(C)C1CCC(C)C(N[C@H]2CN(S(=O)(=O)c3cn(C)cn3)C[C@@H]2c2ccc(F)cc2)C1 (stereo partly drawn) [Example 867, (3R,4S)-4-(4-fluorophenyl)-1-[(1-methyl-1H-imidazol-4-yl)sulfonyl]-N-[2-methyl-5-(prop-1-en-2-yl)cyclohexyl]pyrrolidin-3-amine]		≥ 7.00
Cn1cnc(S(=O)(=O)N2C[C@H](NC(c3ccccc3)C(F)(F)F)[C@@H](c3ccc(F)cc3)C2)c1 (stereo partly drawn) [Example 868, (3R,4S)-4-(4-fluorophenyl)-1-[(1-methyl-1H-imidazol-4-yl)sulfonyl]-N-(2,2,2-trifluoro-1-phenylethyl)pyrrolidin-3-amine]		≥ 5.00
Cn1cnc(S(=O)(=O)N2CC3CCCCC3(NCc3ccc(C(F)(F)F)cc3Cl)C2)c1 (stereo not shown) [Example 869, N-[2-chloro-4-(trifluoromethyl)benzyl]-2-[(1-methyl-1H-imidazol-4-yl)sulfonyl]octahydro-3aH-isoindol-3a-amine]		≥ 8.00
Cn1cnc(S(=O)(=O)N2CC3CCCCC3(NC(=O)c3cccc(C(F)(F)F)c3Cl)C2)c1 (stereo not shown) [Example 870, 2-chloro-N-{2-[(1-methyl-1H-imidazol-4-yl)sulfonyl]octahydro-3aH-isoindol-3a-yl}-3-(trifluoromethyl)benzamide]		≥ 7.00
Cn1cnc(S(=O)(=O)N2CC3CCCCC3(NC(=O)c3ccc(Cl)cc3Cl)C2)c1 (stereo not shown) [Example 871, 2,4-dichloro-N-{2-[(1-methyl-1H-imidazol-4-yl)sulfonyl]octahydro-3aH-isoindol-3a-yl}benzamide]		≥ 7.00
CCCCCCN1CCCC2CN(S(=O)(=O)c3cn(C)cn3)CC21 (stereo not shown) [Example 872, 1-hexyl-6-[(1-methyl-1H-imidazol-4-yl)sulfonyl]octahydro-1H-pyrrolo[3,4-b]pyridine]		< 5.00
Cn1cnc(S(=O)(=O)N2CC3CCCN(C(=O)c4ccc(Cl)cc4Cl)C3C2)c1 (stereo not shown) [Example 873, (2,4-dichlorophenyl){6-[(1-methyl-1H-imidazol-4-yl)sulfonyl]octahydro-1H-pyrrolo[3,4-b]pyridin-1-yl}methanone]		≥ 5.00
